Where two headings read alike, the source gives them in different places.
Legend:
[1] = target: mTOR (Homo sapiens (Human), UniProt P42345)
[2] = tested on: PI3-K (phosphorylation of AKT at serine 473) in BT20 cells; assay: PI3-Kα cellular assay (phospho-AKT Ser473 ELISA in BT20 cells); conditions: Homo sapiens, BT-20, 1 h;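 also: lysates read by ELISA with TMB colour at 450 nm, cells given 0.5% DMSO vehicle serve as positive control and cell-free wells as negative control, duplicate wells per concentration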
[3] = target: PI3-Kα (Mus musculus (Mouse), UniProt P42337); assay: PI3-Kα biochemical assay (in vitro kinase assay, fluorescence polarization); conditions: Ki calculated from IC50, [ATP]=30 uM, Km=25 uM;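 also: Insect-cell-expressed mouse p110/p85 complex converting PI(4,5)P2, product PI(3,4,5)P3 detected by displacing TAMRA-tagged PI(3,4,5)P3 from Grip1 PH domain, lower polarization means more product, room temperature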
[4] = read-out: S473 pAKT 0.5% FBS IC50 (μM)
[5] = read-out: S473 pAKT 10% FBS IC50 (μM)

PI3-Kα, sequence (P42337 whole entry, the tested form may be a part): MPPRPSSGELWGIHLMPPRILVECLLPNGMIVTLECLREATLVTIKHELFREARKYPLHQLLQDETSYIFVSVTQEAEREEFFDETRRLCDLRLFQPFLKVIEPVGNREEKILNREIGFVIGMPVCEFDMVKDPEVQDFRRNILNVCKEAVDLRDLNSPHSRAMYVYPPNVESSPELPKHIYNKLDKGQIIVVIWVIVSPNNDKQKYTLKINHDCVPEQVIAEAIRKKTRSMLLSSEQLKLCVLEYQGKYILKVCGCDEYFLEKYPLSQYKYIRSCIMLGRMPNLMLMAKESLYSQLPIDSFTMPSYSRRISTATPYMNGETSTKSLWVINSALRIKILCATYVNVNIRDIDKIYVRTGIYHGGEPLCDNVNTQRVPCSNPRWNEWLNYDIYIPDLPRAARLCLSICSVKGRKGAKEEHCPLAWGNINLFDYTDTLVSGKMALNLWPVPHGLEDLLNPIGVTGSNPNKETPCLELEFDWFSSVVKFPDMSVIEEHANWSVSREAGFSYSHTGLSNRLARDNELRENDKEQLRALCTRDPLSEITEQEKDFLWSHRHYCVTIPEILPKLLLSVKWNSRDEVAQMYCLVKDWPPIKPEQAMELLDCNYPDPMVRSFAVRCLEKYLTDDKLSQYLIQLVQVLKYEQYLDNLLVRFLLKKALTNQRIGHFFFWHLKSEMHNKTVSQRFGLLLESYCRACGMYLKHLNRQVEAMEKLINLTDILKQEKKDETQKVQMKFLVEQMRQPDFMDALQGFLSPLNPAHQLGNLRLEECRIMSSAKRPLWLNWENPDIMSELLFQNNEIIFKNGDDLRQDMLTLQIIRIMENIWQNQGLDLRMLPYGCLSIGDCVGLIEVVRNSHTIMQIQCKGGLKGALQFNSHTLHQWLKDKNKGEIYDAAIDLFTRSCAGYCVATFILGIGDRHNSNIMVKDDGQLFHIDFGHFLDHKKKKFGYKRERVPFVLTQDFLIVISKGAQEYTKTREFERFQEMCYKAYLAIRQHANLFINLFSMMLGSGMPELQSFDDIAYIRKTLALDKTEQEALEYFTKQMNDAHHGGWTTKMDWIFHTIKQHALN
PI3-Kα, sequence (P26450 whole entry partner, the tested form may be a part): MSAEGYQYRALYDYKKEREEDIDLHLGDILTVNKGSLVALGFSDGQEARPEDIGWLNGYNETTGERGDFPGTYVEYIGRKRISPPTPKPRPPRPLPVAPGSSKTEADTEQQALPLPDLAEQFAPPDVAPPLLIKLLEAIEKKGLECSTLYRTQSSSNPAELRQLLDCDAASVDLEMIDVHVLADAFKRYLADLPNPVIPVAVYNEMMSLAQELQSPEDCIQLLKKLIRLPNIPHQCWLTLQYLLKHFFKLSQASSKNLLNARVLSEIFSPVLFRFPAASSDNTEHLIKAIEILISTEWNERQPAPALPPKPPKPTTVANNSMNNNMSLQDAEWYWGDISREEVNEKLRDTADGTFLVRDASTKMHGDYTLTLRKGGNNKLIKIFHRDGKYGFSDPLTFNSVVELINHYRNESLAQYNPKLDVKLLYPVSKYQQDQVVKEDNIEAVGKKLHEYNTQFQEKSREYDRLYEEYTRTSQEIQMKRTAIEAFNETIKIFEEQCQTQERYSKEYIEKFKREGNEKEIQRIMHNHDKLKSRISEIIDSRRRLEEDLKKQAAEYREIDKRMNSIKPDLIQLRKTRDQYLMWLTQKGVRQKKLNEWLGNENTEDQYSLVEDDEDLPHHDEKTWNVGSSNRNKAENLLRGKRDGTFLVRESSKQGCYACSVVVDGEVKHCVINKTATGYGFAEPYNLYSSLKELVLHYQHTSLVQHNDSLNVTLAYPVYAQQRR
mTOR, sequence (P42345 2156-2469): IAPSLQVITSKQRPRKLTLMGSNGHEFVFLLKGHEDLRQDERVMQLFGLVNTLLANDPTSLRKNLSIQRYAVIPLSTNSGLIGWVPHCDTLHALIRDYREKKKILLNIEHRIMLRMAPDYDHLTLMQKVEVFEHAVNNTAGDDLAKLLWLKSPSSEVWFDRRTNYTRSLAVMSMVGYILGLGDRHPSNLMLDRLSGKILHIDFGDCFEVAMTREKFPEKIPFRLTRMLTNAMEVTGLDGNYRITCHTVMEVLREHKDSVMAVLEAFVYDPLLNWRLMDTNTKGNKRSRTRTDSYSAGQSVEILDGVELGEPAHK

CCN1CCC(n2c(=O)n(C)c3cnc4ccc(-c5cnc6ccccc6c5)nc4c32)CC1 [Compound 119, 1-(1-ethylpiperidin-4-yl)-3-methyl-8-quinolin-3-yl-1,3-dihydro-2H-imidazo[4,5-c][1,5]naphthyridin-2-one]
Ki [1]: 0.00811 µM
IC50 [2, 4]: 0.0117 µM
PI3Ka Ki [3]: 0.00319 µM

CC(C)OC(=O)N1CCC(n2c(=O)n(C)c3cnc4ccc(-c5cnc6ccccc6c5)nc4c32)CC1 [Compound 128, isopropyl 4-(3-methyl-2-oxo-8-quinolin-3-yl-2,3-dihydro-1H-imidazo[4,5-c][1,5]naphthyridin-1-yl)piperidine-1-carboxylate]
Ki [1]: 0.00972 µM
IC50 [2, 4]: 0.0196 µM
PI3Ka Ki [3]: 0.00289 µM

Cc1ccc(-c2ccc3ncc4c(c3n2)n(-c2ccc(C(C)(C)C#N)cc2)c(=O)n4C)cn1 [Compound 106, 2-methyl-2-{4-[3-methyl-8-(6-methylpyridin-3-yl)-2-oxo-2,3-dihydro-1H-imidazo[4,5-c]-1,5-naphthyridin-1-yl]phenyl}propanenitrile]
Ki [1]: 0.0269 µM
IC50 [2, 4]: 0.0244 µM
PI3Ka Ki [3]: 0.0348 µM

COc1ccc(-c2ccc3ncc4c(c3n2)n(C2CCN(C(=O)CN(C)C)CC2)c(=O)n4C)cn1 [Compound 138, 1-[1-(N,N-dimethylglycyl)piperidin-4-yl]-8-(6-methoxypyridin-3-yl)-3-methyl-1,3-dihydro-2H-imidazo[4,5-c][1,5]naphthyridin-2-one]
Ki [1]: 0.0106 µM
IC50 [2, 5]: 0.0144 µM
PI3Ka Ki [3]: 0.00223 µM

C[C@@H](O)C(=O)N1CCC(n2c(=O)n(C)c3cnc4ccc(-c5ccc(N(C)C)nc5)nc4c32)CC1 [Compound 214, 8-[6-(dimethylamino)pyridin-3-yl]-1-{1-[(2R)-2-hydroxypropanoyl]piperidin-4-yl}-3-methyl-1,3-dihydro-2H-imidazo[4,5-c][1,5]naphthyridin-2-one]
Ki [1]: 0.00174 µM
IC50 [2, 5]: 0.00553 µM
PI3Ka Ki [3]: 0.000397 µM

COc1ncc(-c2ccc3ncc4[nH]c(=O)n(-c5ccc(C(C)(C)C#N)cc5)c4c3n2)cc1F [Compound 109, 2-(4-(8-(5-fluoro-6-methoxypyridin-3-yl)-2-oxo-2,3-dihydroimidazo[4,5-c][1,5]naphthyridin-1-yl)phenyl)-2-methylpropanenitrile]
Ki [1]: 0.00903 µM
IC50 [2, 4]: 0.197 µM
PI3Ka Ki [3]: 0.00381 µM

CN(C)CC(=O)N1CCC(n2c(=O)n(C)c3cnc4ccc(-c5ccc(N(C)C)nc5)nc4c32)CC1 [Compound 144, 8-[6-(dimethylamino)pyridin-3-yl]-1-[1-(N,N-dimethylglycyl)piperidin-4-yl]-3-methyl-1,3-dihydro-2H-imidazo[4,5-c][1,5]naphthyridin-2-one]
Ki [1]: 0.00799 µM
IC50 [2, 5]: 0.0153 µM
PI3Ka Ki [3]: 0.0021 µM

COc1ccc(-c2ccc3ncc4c(c3n2)n(C2CCOCC2)c(=O)n4C)cn1 [Compound 140, 8-(6-methoxypyridin-3-yl)-3-methyl-1-(tetrahydro-2H-pyran-4-yl)-1,3-dihydro-2H-imidazo[4,5-c][1,5]naphthyridin-2-one]
Ki [1]: 0.00774 µM
IC50 [2, 5]: 0.0185 µM
PI3Ka Ki [3]: 0.000668 µM

COCCN1CCC(n2c(=O)n(C)c3cnc4ccc(-c5ccc(N(C)C)nc5)nc4c32)CC1 [Compound 206, 8-[6-(dimethylamino)pyridin-3-yl]-1-[1-(2-methoxyethyl)piperidin-4-yl]-3-methyl-1,3-dihydro-2H-imidazo[4,5-c][1,5]naphthyridin-2-one]
Ki [1]: 0.00809 µM
IC50 [2, 5]: 0.0318 µM
PI3Ka Ki [3]: 0.000802 µM

CC(=O)N1CCC(n2c(=O)n(C)c3cnc4ccc(-c5ccc(N)nc5)nc4c32)CC1 [Compound 242, 1-(1-acetylpiperidin-4-yl)-8-(6-aminopyridin-3-yl)-3-methyl-1,3-dihydro-2H-imidazo[4,5-c][1,5]naphthyridin-2-one]
Ki [1]: 0.000299 µM
IC50 [2, 5]: 0.00917 µM
PI3Ka Ki [3]: 0.000252 µM

COc1ncc(-c2ccc3ncc4c(c3n2)n(C2CCN(CC(=O)N(C)C)CC2)c(=O)n4C)cn1 [Compound 163, 2-{4-[8-(2-methoxypyrimidin-5-yl)-3-methyl-2-oxo-2,3-dihydro-1H-imidazo[4,5-c][1,5]naphthyridin-1-yl]piperidin-1-yl}-N,N-dimethylacetamide]
Ki [1]: 0.0184 µM
IC50 [2, 5]: 0.037 µM
PI3Ka Ki [3]: 0.0047 µM

Cn1c(=O)n(C2CCNCC2)c2c3nc(-c4cnn(CCO)c4)ccc3ncc21 [Compound 226, 8-[1-(2-hydroxyethyl)-1H-pyrazol-4-yl]-3-methyl-1-piperidin-4-yl-1,3-dihydro-2H-imidazo[4,5-c][1,5]naphthyridin-2-one]
Ki [1]: 0.105 µM
IC50 [2, 5]: 3.21 µM
PI3Ka Ki [3]: 0.0521 µM

CC(C)C(=O)N1CCC(n2c(=O)n(C)c3cnc4ccc(-c5cnc6ccccc6c5)nc4c32)CC1 [Compound 125, 1-(1-isobutyrylpiperidin-4-yl)-3-methyl-8-quinolin-3-yl-1,3-dihydro-2H-imidazo[4,5-c][1,5]naphthyridin-2-one]
Ki [1]: 0.00487 µM
IC50 [2, 4]: 0.0294 µM
PI3Ka Ki [3]: 0.00106 µM

COc1ncc(-c2ccc3ncc4c(c3n2)n(-c2ccc(C(C)(C)C#N)cc2)c(=O)n4C)cc1F [Compound 110, 2-(4-(8-(5-fluoro-6-methoxypyridin-3-yl)-3-methyl-2-oxo-2,3-dihydroimidazo[4,5-c][1,5]naphthyridin-1-yl)phenyl)-2-methylpropanenitrile]
Ki [1]: 0.0266 µM
IC50 [2, 5]: 0.0907 µM
PI3Ka Ki [3]: 0.00235 µM

CN(C)c1ccc(-c2ccc3ncc4c(c3n2)n(C2CCN(CC(F)(F)F)CC2)c(=O)n4C)cn1 [Compound 150, 8-[6-(dimethylamino)pyridin-3-yl]-3-methyl-1-[1-(2,2,2-trifluoroethyl)piperidin-4-yl]-1,3-dihydro-2H-imidazo[4,5-c][1,5]naphthyridin-2-one]
Ki [1]: 0.0125 µM
IC50 [2, 5]: 0.0182 µM
PI3Ka Ki [3]: 0.00878 µM

CC(=O)N1CCC(n2c(=O)n(C)c3cnc4ccc(-c5ccc(S(C)(=O)=O)cc5)nc4c32)CC1 [Compound 246, 1-(1-acetylpiperidin-4-yl)-3-methyl-8-[4-(methylsulfonyl)phenyl]-1,3-dihydro-2H-imidazo[4,5-c][1,5]naphthyridin-2-one]
Ki [1]: 0.0353 µM
IC50 [2, 5]: 2.58 µM
PI3Ka Ki [3]: 0.0242 µM

CN(C)c1ccc(-c2ccc3ncc4c(c3n2)n(C2CCN(C(N)=O)CC2)c(=O)n4C)cn1 [Compound 197, 4-{8-[6-(dimethylamino)pyridin-3-yl]-3-methyl-2-oxo-2,3-dihydro-1H-imidazo[4,5-c][1,5]naphthyridin-1-yl}piperidine-1-carboxamide]
Ki [1]: 0.000444 µM
IC50 [2, 5]: 0.0358 µM
PI3Ka Ki [3]: 0.00105 µM

CNC(=O)N1CCC(n2c(=O)n(C)c3cnc4ccc(-c5cnn(C)c5)nc4c32)CC1 [Compound 217, N-methyl-4-[3-methyl-8-(1-methyl-1H-pyrazol-4-yl)-2-oxo-2,3-dihydro-1H-imidazo[4,5-c][1,5]naphthyridin-1-yl]piperidine-1-carboxamide]
Ki [1]: 0.0187 µM
IC50 [2, 5]: 0.0793 µM

CN1CCC(n2c(=O)n(C)c3cnc4ccc(-c5ccc(N(C)C)nc5)nc4c32)CC1 [Compound 207, 8-[6-(dimethylamino)pyridin-3-yl]-3-methyl-1-(1-methylpiperidin-4-yl)-1,3-dihydro-2H-imidazo[4,5-c][1,5]naphthyridin-2-one]
Ki [1]: 0.00962 µM
IC50 [2, 5]: 0.0194 µM

From patent publication US8791131B2, “Imidazo[1,5]naphthyridine compounds, their pharmaceutical use and compositions” (Pfizer Inc., priority 2008, dated 2014)
